Marks after values point to notes of the source that are not given here.
How the values were obtained:
BALB/c mice = test: LPS-induced lethality (survival) in mice; format: in vivo; conditions: 100 mg/kg 30 min before 70 mg/kg i.p. LPS; 24-96 h; p<0.05 vs vehicle
Protocol: Because inosine skewed the cytokine response towards an anti-inflammatory profile, the ability of inosine to decrease LPS-induced lethality in a murine model system was investigated. BALB/c mice were pretreated with drug vehicle (physiologic saline) or 100 mg/kg inosine 30 min before the injection of 70 mg/kg of i.p. LPS. Survival was recorded at 24, 48, 72, and 96 h after the LPS injection. Results from the summary of two different experiments are shown. N=16 animals in each group. Inosine improved survival rate at 24-96 h (p<0.05). Therefore, inosine conferred significant protection in this endotoxemic model. Thus, inosine is useful for treating or preventing an inflammation disease or a reperfusion disease.

DSS mice [1] = test: DSS colitis, inosine versus 5′-IMS at 50, 100 and 300 μmoles/kg/day; format: in vivo
Excerpt: The effect of various doses (50, 100 and 300 μmoles/kg/day) inosine and IMS on the outcome of DSS (dextran sodium sulfate) colitis in mice. Colonic length, gross histologic score, colonic MDA content and colonic MPO content have been determined. N=10 animals per experimental groups. *p<0.05 and **p<0.01 indicates significant improvements in drug treated DSS animals, when compared to vehicle treated DSS animals. Mean +SEM are presented, except for histological scores, which are presented as medians.
Significant improvements in 5′-IMS treated DSS animals was observed as compared to vehicle treated DSS animals. Mean ±SEM are shown, except for the histological scores, which are presented as medians.

DSS mice [2] = test: DSS-induced inflammatory bowel disease model, inosine treatment; format: in vivo; conditions: 5% DSS 10 days, inosine 200 mg/kg/day orally
Protocol: The effect of inosine in a mouse model of inflammatory disease was examined. Inosine was administered (oral administration, 100 mg/kg, 2 times a day), in a mouse model of inflammatory bowel disease induced by dextran sulfate solution (DSS). This system is well-characterized and is considered a reliable model of inflammatory bowel disease. Efficacy of a pharmaceutical compound in this model is taken as evidence that the compound is likely to be effective in human beings (Sasaki et al., Scand. J. Immunol. 51:23-8,2000; Gaudio et al, Dig. Dis. Sci. 44:1458-75, 1999; Murthy et al., Aliment Pharmacol. Ther. 13:251-60, 1999; Kimura et al., Arzneimittelforschung 48:1091-96, 1998; Dieleman et al., Scand. J Gastroenterol. Suppl. 223:99-104, 1997).
Symptoms associated with the DSS model were induced as follows. Mice were patiented to a drinking water containing 5% DSS for 10 days, in the presence (n=10) or absence (n=10) of inosine treatment (200 mg/kg/day, orally). At the end of 10 days, animals were evaluated for the incidence of bloody diarrhea, for colon shortening, and colon histopathology. Colonic myeloperoxidase (MPO) and malondialdehyde (MDA) levels were measured. These parameters provide a good cross-section of the functional and inflammatory changes associated with the current model of inflammatory bowel disease.
Significant protective effect of inosine in the presence of DSS is indicated as *p<0.05, when compared to the values with DSS alone in the absence of inosine.

[3] = system: peritoneal macrophages stimulated with LPS/IFN-γ; test: IL-12 and TNF production by stimulated peritoneal macrophages exposed to inosine; format: cell-based
Protocol: To determine the effect of inosine on inflammatory cytokine production, stimulated macrophages were exposed to inosine at 0 to 1000 μM, after which production of cytokines IL-12 and TNF was measured.

STZ diabetic mice = test: Streptozotocin-induced diabetes: blood glucose, diabetes incidence, pancreatic insulin content; format: in vivo
Protocol: The effect of inosine was in a […] model of streptozotocin-induced diabetes was examined. Mice were treated with streptozotocin (40 mg/kg in citrate buffer) or vehicle (citrate buffer) i.p. for 5 consecutive days to induce diabetes. Blood glucose was monitored over the following 21 days using a one-touch blood glucose meter (Lifescan). […] Hyperglycemia was defined as non-fasting blood glucose level higher than 200 mg/dL. Mice were treated simultaneously with streptozotocin injection throughout the 21 days of the experiments and with vehicle or inosine (100 mg/kg oral gavage, twice a day). Samples of pancreas were removed on day 21 and weighed before being placed into 6 mls of acid ethanol (23:7:0.45 ethanol:dH2O:HCl) and homogenized. The pancreas samples were incubated for 72 h at 4° C. before being centrifuged. The insulin content of the supernatant was then determined using an ELISA assay.
An “*” indicates significant reduction of circulating glucose or diabetes incidence in the inosine-treated streptozotocin rats when compared to vehicle-treated streptozotocin rats (p<0.05).
An “*” in TABLE 7 indicates significant decreases in insulin content in response to streptozotocin when compared to control, and a “#” indicates significant preservation of pancreatic insulin content in the inosine-treated streptozotocin rats (p<0.05). Pancreatic insulin content at 21 days in streptozotocin diabetic mice receiving vehicle or inosine treatment.

male BALB/c mice = test: Plasma cytokine levels after LPS challenge in endotoxemic mice; format: in vivo; conditions: 100 mg/kg i.p. 30 min before LPS 70 mg/kg i.p.
Protocol: To determine whether inosine inhibits inflammatory cytokine release in vivo, male BALB/c mice were injected with inosine (100 mg/kg; i.p.) followed 30 minutes later by an i.p. injection of LPS (70 mg/kg). Plasma levels of the different cytokines were measured at various times (90 mm 2 h, 4 h, and 8 h) after the LPS challenge.
The results are shown in FIGS. 1A-E. Data are mean ±SEM of n=8 mice. The asterisk in the figure indicates p<0.05. […] Inosine was also shown to augment IL-10 (FIG. 1E) production in endotoxemic mice. […] Inosine inhibits the production of proinflammatory cytokines, but also potentiates the formation of the anti-inflammatory IL-10. Accordingly, inosine is useful for treating or preventing an inflammation disease or a reperfusion disease.

[4] = 50, 100 and 300 μmoles/kg/day, vs vehicle treated DSS animals
[5] = day 0, inosine 100 mg/kg oral gavage twice a day

OC[C@H]1O[C@@H](n2cnc3c(O)ncnc32)[C@H](O)[C@@H]1O [Inosine, inosine]
survival rate (BALB/c mice): improved
protection against colonic shortening (DSS mice [1]; [4]): not
protection against visible histological damage (DSS mice [1]; [4]): not
dose at which colonic MDA levels were reduced (DSS mice [1]; first statement ('For example')): 100 µmol/kg/day
dose at which MDA levels were reduced (second statement, 'Similarly') (DSS mice [1]; second statement of b313): 300 µmol/kg/day
Gut histological damage (1-4 scale) (DSS mice [2]; DSS alone 3.6 ± 0.4): 1.2 ± 0.4*
Gut malondialdehyde levels (DSS mice [2]; DSS alone 3.7 ± 0.8): 2.1 ± 0.5* nmol/mg protein
Colonic length (DSS mice [2]; DSS alone 4.2 ± 0.1, in cm (unit assumed)): 5.1 ± 0.1*
Weight loss of the animals at 10 days (DSS mice [2]; DSS alone 20 ± 2): 13 ± 1* %
Incidence of rectal bleeding (DSS mice [2]; DSS alone 90): 20* %
Gut myeloperoxidase levels (DSS mice [2]; DSS alone 296 ± 87): 88 ± 14* nU/mg protein
IL-12 ([3]; Inosine 10 μM, control 6.84 ± 0.39): 5.9 ± 0.19 ng/mL
TNF ([3]; Inosine 10 μM, control […] ± 1.89): 10.08 ± 1.3 ng/mL
IL-12 ([3]; Inosine 30 μM): 5.1 ± 0.14 ng/mL
TNF ([3]; Inosine 30 μM): 8.38 ± 0.14 ng/mL
IL-12 ([3]; Inosine 100 μM): 4.46 ± 0.62 ng/mL
TNF ([3]; Inosine 100 μM): 7.61 ± 0.33 ng/mL
IL-12 ([3]; Inosine 300 μM): 4.94 ± 0.06 ng/mL
TNF ([3]; Inosine 300 μM): 5.45 ± 0.52 ng/mL
IL-12 ([3]; Inosine 1000 μM): 4.34 ± 0.39 ng/mL
TNF ([3]; Inosine 1000 μM): 5.62 ± 0.88 ng/mL
Pancreatic insulin content (STZ diabetic mice; 21 days, inosine treated, STZ vehicle 6 ± 1, control 68 ± 11): 21 ± 4# ng insulin/mg protein
Diabetes Incidence (STZ diabetic mice; [5]): 0%
Mean Blood Glucose (STZ diabetic mice; [5]): 95 ± 4 mg/dL
Median Blood Glucose (STZ diabetic mice; [5]): 96 mg/dL
Diabetes Incidence (STZ diabetic mice; day 7, inosine 100 mg/kg oral gavage twice a day, STZ vehicle 8): 0%
Mean Blood Glucose (STZ diabetic mice; day 7, inosine 100 mg/kg oral gavage twice a day, STZ vehicle 137 ± 7): 112 ± 6* mg/dl
Median Blood Glucose (STZ diabetic mice; day 7, inosine 100 mg/kg oral gavage twice a day, STZ vehicle 146): 117* mg/dl
Diabetes Incidence (STZ diabetic mice; day 21, inosine 100 mg/kg oral gavage twice a day, STZ vehicle 67): 25* %
Mean Blood Glucose (STZ diabetic mice; day 21, inosine 100 mg/kg oral gavage twice a day, STZ vehicle 231 ± 15): 152 ± 20* mg/dl
Median Blood Glucose (STZ diabetic mice; day 21, inosine 100 mg/kg oral gavage twice a day, STZ vehicle 260): 130* mg/dl
production of TNF-α (plasma) (male BALB/c mice; FIG. 1A): suppress
production of IL-12 (plasma) (male BALB/c mice; FIG. 1B): suppress
production of IFN-γ (plasma) (male BALB/c mice; FIG. 1C): suppress
production of MIP-1α (plasma) (male BALB/c mice; FIG. 1D): suppress
IL-10 production (plasma) (male BALB/c mice; FIG. 1E): augment
